Assay results as given in US9499534B2, “Thiazole-substituted aminopyrimidines as spleen tyrosine kinase inhibitors” (priority 2013, dated 2016).

biological target: recombinant human GST-SYK (Homo sapiens (Human), UniProt P43405); assay: Homogeneous Time-Resolved Fluorescence (HTRF) Assay for the Recombinant Human Syk Enzyme; assay type: biochemical; settings: GST-SYK 5 pM, ATP 25 μM, biotinylated substrate peptide 250 nM, HTRF signal
Method: Homogeneous Time-Resolved Fluorescence (HTRF) Assay for the Recombinant Human Syk Enzyme
A recombinant GST-hSYK fusion protein was used to measure potency of compounds to inhibit human Syk activity. The recombinant human GST-SYK (Carna Biosciences #08-176) (5 pM final concentration) was incubated with various concentrations of the inhibitor diluted in DMSO (0.1% final concentration) for 10 minutes at room temperature in 15 mM Tris-HCl (pH 7.5), 0.01% tween 20, 2 mM DTT in 384 well plate format. To initiate the reaction the biotinylated substrate peptide (250 nM final concentration) that contains the phosphorylation site for Syk was added with magnesium (5 mM final concentration) and ATP (25 μM final concentration). Final volume of the reaction was 10 μL. Phosphorylation of the peptide was allowed to proceed for 45′ at room temperature. To quench the reaction and detect the phosphorylated product, 2 nM of a Europium-anti-phosphotyrosine antibody (Perkin Elmer #AD0161) and 70 nM SA-APC (Perkin-Elmer #CR130-100) were added together in 15 mM Tris pH 7.5, 40 mM EDTA, 0.01% tween 20. Final volume of the quenching solution was 10 μL.
The resulting HTRF signal was measured after 30 minutes on an EnVision (Perkin-Elmer) reader using a time-resolved fluorescence protocol. Table A below lists activities as IC50 values (nM) for representative compounds of the invention.

Row | IC50 [nM] | Compound
1 | 48 | Cn1cc(-c2cc(Nc3nccc(C(F)(F)F)n3)cc(-c3cnc([C@@]4(O)CC[C@H](C(=O)O)C(C)(C)C4)s3)c2)cn1 (single isomer, unassigned) [Example 2.1, (1R,4S or 1S,4R)-4-Hydroxy-2,2-dimethyl-4-(5-(3-(1-methyl-1H-pyrazol-4-yl)-5-((4-(trifluoromethyl)pyrimidin-2-yl)amino)phenyl)thiazol-2-yl)cyclohexanecarboxylic acid]
2 | 285 | CC1(C)C[C@](O)(c2ncc(-c3cc(Nc4nccc(C(F)(F)F)n4)cc(-c4cnn(C(C)(C)C)c4)c3)s2)CC[C@H]1C(=O)O (single isomer, unassigned) [Example 2.2, (1R,4S or 1S,4R)-4-{5-[3-(1-tert-butyl-1H-pyrazol-4-yl)-5-{[4-(trifluoromethyl)pyrimidin-2-yl]amino}phenyl]-1,3-thiazol-2-yl}-4-hydroxy-2,2-dimethylcyclohexanecarboxylic acid]
3 | 149 | CC(C)n1cc(-c2cc(Nc3nccc(C(F)(F)F)n3)cc(-c3cnc([C@]4(O)CC[C@@H](C(=O)O)C(C)(C)C4)s3)c2)cn1 (single isomer, unassigned) [Example 2.3, (1R,4S or 1S,4R)-4-hydroxy-2,2-dimethyl-4-[5-(3-[1-(1-methylethyl)-1H-pyrazol-4-yl]-5-{[4-(trifluoromethyl)pyrimidin-2-yl]amino}phenyl)-1,3-thiazol-2-yl]cyclohexanecarboxylic acid]
4 | 63.5 | CCn1cc(-c2cc(Nc3nccc(C(F)(F)F)n3)cc(-c3cnc([C@]4(O)CC[C@@H](C(=O)O)C(C)(C)C4)s3)c2)cn1 (single isomer, unassigned) [Example 2.4, (1R,4S or 1S,4R)-4-{5-3-(1-ethyl-1H-pyrazol-4-yl)-5-{[4-(trifluoromethyl)pyrimidin-2-yl]amino}phenyl]-1,3-thiazol-2-yl}-4-hydroxy-2,2-dimethylcyclohexanecarboxylic acid]
5 | 1.56 | CC1(C)C[C@](O)(c2ncc(-c3cc(Nc4nccc(C(F)(F)F)n4)cc(-c4ccncc4)c3)s2)CC[C@H]1C(=O)O (single isomer, unassigned) [Example 2.5, (1R,4S or 1S,4R)-4-hydroxy-2,2-dimethyl-4-[5-(3-pyridin-4-yl-5-{[4-(trifluoromethyl)pyrimidin-2-yl]amino}phenyl)-1,3-thiazol-2-yl]cyclohexanecarboxylic acid]
6 | 3.68 | COc1ccc(-c2cc(Nc3nccc(C(F)(F)F)n3)cc(-c3cnc([C@]4(O)CC[C@@H](C(=O)O)C(C)(C)C4)s3)c2)cn1 (single isomer, unassigned) [Example 2.7, (1R,4S or 1S,4R)-4-hydroxy-4-{5-[3-(6-methoxypyridin-3-yl)-5-{[4-(trifluoromethyl)pyrimidin-2-yl]amino}phenyl]-1,3-thiazol-2-yl}-2,2-dimethylcyclohexanecarboxylic acid]
7 | 11.7 | CC1(C)C[C@](O)(c2ncc(-c3cc(Nc4nccc(C(F)(F)F)n4)cc(-c4ccsc4)c3)s2)CC[C@H]1C(=O)O (single isomer, unassigned) [Example 2.8, (1R,4S or 1S,4R)-4-hydroxy-2,2-dimethyl-4-[5-(3-thiophen-3-yl-5-{[4-(trifluoromethyl)pyrimidin-2-yl]amino}phenyl)-1,3-thiazol-2-yl]cyclohexanecarboxylic acid]
8 | 2.38 | CC1(C)C[C@](O)(c2ncc(-c3cc(Nc4nccc(C(F)(F)F)n4)cc(-c4cn[nH]c4)c3)s2)CC[C@H]1C(=O)O (single isomer, unassigned) [Example 2.10, (1R,4S or 1S,4R)-4-hydroxy-2,2-dimethyl-4-{5-[3-(1H-pyrazol-4-yl)-5-{[4-(trifluoromethyl)pyrimidin-2-yl]amino}phenyl]-1,3-thiazol-2-yl}cyclohexanecarboxylic acid]
9 | 1.11 | CC1(C)C[C@](O)(c2ncc(-c3cc(Nc4nccc(C(F)(F)F)n4)cc(-c4cc[nH]n4)c3)s2)CC[C@H]1C(=O)O (single isomer, unassigned) [Example 2.11, (1R,4S or 1S,4R)-4-hydroxy-2,2-dimethyl-4-{5-[3-(1H-pyrazol-3-yl)-5-{[4-(trifluoromethyl)pyrimidin-2-yl]amino}phenyl]-1,3-thiazol-2-yl}cyclohexanecarboxylic acid]
10 | 3.22 | CC1(C)C[C@](O)(c2ncc(-c3cc(Nc4nccc(C(F)(F)F)n4)cc(-c4cncc(F)c4)c3)s2)CC[C@H]1C(=O)O (single isomer, unassigned) [Example 2.15, (1R,4S or 1S,4R)-4-{5-[3-(5-fluoropyridin-3-yl)-5-{[4-(trifluoromethyl)pyrimidin-2-yl]amino}phenyl]-1,3-thiazol-2-yl}-4-hydroxy-2,2-dimethylcyclohexanecarboxylic acid]

The next lines start with the compound.

Row | Compound | IC50 [nM]
11 | CCOC(=O)[C@H]1CC[C@](O)(c2ncc(-c3cc(Nc4nccc(C(F)(F)F)n4)cc(-c4cn[nH]c4)c3)s2)C[C@H]1C (racemic) [Example 1.1, Ethyl rel-(1S,2R,4R or S)-4-(5-(3-(1H-pyrazol-4-yl)-5-((4-(trifluoromethyl)pyrimidin-2-yl)amino)phenyl)thiazol-2-yl)-4-hydroxy-2-methylcyclohexanecarboxylate] | 162
12 | C[C@@H]1C[C@@](O)(c2ncc(-c3cc(Nc4nccc(C(F)(F)F)n4)cc(-c4cn[nH]c4)c3)s2)CC[C@@H]1C(=O)O (racemic) [Example 1.2, rel-(1S,2R,4R or S)-4-(5-(3-(1H-pyrazol-4-yl)-5-((4-(trifluoromethyl)pyrimidin-2-yl)amino)phenyl)thiazol-2-yl)-4-hydroxy-2-methylcyclohexanecarboxylic acid] | 0.959
13 | C[C@@H]1C[C@@](O)(c2ncc(-c3cc(Nc4nccc(C(F)(F)F)n4)cc(-c4cn[nH]c4)c3)s2)CC[C@@H]1C(N)=O (racemic) [Example 1.3, rel-(1S,2R,4R or S)-4-(5-(3-(1H-pyrazol-4-yl)-5-((4-(trifluoromethyl)pyrimidin-2-yl)amino)phenyl)thiazol-2-yl)-4-hydroxy-2-methylcyclohexanecarboxamide] | 2.95
14 | COc1cc(Nc2nccc(C(F)(F)F)n2)cc(-c2cnc([C@@]3(O)CC[C@H](C(=O)O)C(C)(C)C3)s2)c1 (single isomer, unassigned) [Example 1.5, (1R,4S or 1S,4R) 4-Hydroxy-4-(5-(3-methoxy-5-((4-(trifluoromethyl)pyrimidin-2-yl)amino)phenyl)thiazol-2-yl)-2,2-dimethylcyclohexanecarboxylic acid] | 1.4
15 | CC1(C)CC(O)(c2ncc(-c3cc(C#N)cc(Nc4nccc(C(F)(F)F)n4)c3)s2)CCC1C(=O)O (single isomer, unassigned) [Example 1.8, (1R,4S or 1S,4R)-4-[5-(3-cyano-5-{[4-(trifluoromethyl)pyrimidin-2-yl]amino}phenyl)-1,3-thiazol-2-yl]-4-hydroxy-2,2-dimethylcyclohexanecarboxylic acid] | 5.77
16 | CC1(C)CC(O)(c2ncc(-c3cc(Nc4nccc(C(F)(F)F)n4)cc(S(C)(=O)=O)c3)s2)CCC1C(=O)O (single isomer, unassigned) [Example 1.9, (1R,4S or 1S,4R)-4-hydroxy-2,2-dimethyl-4-{5-[3-(methylsulfonyl)-5-{[4-(trifluoromethyl)pyrimidin-2-yl]amino}phenyl]-1,3-thiazol-2-yl}cyclohexanecarboxylic acid] | 5.1
17 | CC1(C)C[C@](O)(c2ncc(-c3cc(Nc4nccc(C(F)(F)F)n4)cc(-c4ccc(F)cc4)c3)s2)CC[C@H]1C(=O)O (single isomer, unassigned) [Example 2.6, (1R,4S or 1S,4R)-4-[5-(4′-fluoro-5-{[4-(trifluoromethyl)pyrimidin-2-yl]amino}biphenyl-3-yl)-1,3-thiazol-2-yl]-4-hydroxy-2,2-dimethylcyclohexanecarboxylic acid] | 20.7
18 | CC1(C)C[C@](O)(c2ncc(-c3cc(Nc4nccc(C(F)(F)F)n4)cc(-c4cccc(C(=O)NC5CC5)c4)c3)s2)CC[C@H]1C(=O)O (single isomer, unassigned) [Example 2.9, (1R,4S or 1S,4R)-4-{5-[3′-(cyclopropylcarbamoyl)-5-{[4-(trifluoromethyl)pyrimidin-2-yl]amino}biphenyl-3-yl]-1,3-thiazol-2-yl}-4-hydroxy-2,2-dimethylcyclohexanecarboxylic acid] | 2.78
19 | COc1ccc(-c2cc(Nc3nccc(C(F)(F)F)n3)cc(-c3cnc([C@]4(O)CC[C@@H](C(=O)O)C(C)(C)C4)s3)c2)cc1F (single isomer, unassigned) [Example 2.12, (1R,4S or 1S,4R)-4-[5-(3′-fluoro-4′-methoxy-5-{[4-(trifluoromethyl)pyrimidin-2-yl]amino}biphenyl-3-yl)-1,3-thiazol-2-yl]-4-hydroxy-2,2-dimethylcyclohexanecarboxylic acid] | 35.3
20 | CC1(C)C[C@](O)(c2ncc(-c3cc(Nc4nccc(C(F)(F)F)n4)cc(-c4cccc(F)c4F)c3)s2)CC[C@H]1C(=O)O (single isomer, unassigned) [Example 2.14, (1R,4S or 1S,4R)-4-[5-(2′,3′-difluoro-5-{[4-(trifluoromethyl)pyrimidin-2-yl]amino}biphenyl-3-yl)-1,3-thiazol-2-yl]-4-hydroxy-2,2-dimethylcyclohexanecarboxylic acid] | 12.9
